In ChEMBL document CHEMBL5029178, “Discovery of 3-amino-4-{(3S)-3-[(2-ethoxyethoxy)methyl]piperidin-1-yl}thieno[2,3-b]pyridine-2-carboxamide (DS96432529): A potent and orally active bone anabolic agent” (Bioorg Med Chem Lett, 2021):
≈ marks a conversion by molar mass, not a printed value. Calls of active or inactive are those of the source. No cut-off for these calls is given here.

Legend:
ST-2 = experiment: […] of alkaline phosphatase activity in mouse ST-2 cells; type: cell-based
[1] = AUC (0 to 8 hrs) in Fischer 344 rat at 3 mg/kg, po; type: ADME, organism-based; set-up: time < 8 hr, route oral, dose 3 mg/kg; details: in vivo
[2] = Cmax in Fischer 344 rat at 3 mg/kg, po; type: ADME, organism-based; set-up: route oral, dose 3 mg/kg; details: in vivo
CYP3A4 [3] = molecular target: T1, CYP3A4 (Homo sapiens, UniProt P08684); experiment: Time dependent inhibition of CYP3A4 in human liver microsomes assessed as parent compound remaining at 100 uM; type: ADME; details: read-out: TDI
T1 sequence (P08684 whole entry): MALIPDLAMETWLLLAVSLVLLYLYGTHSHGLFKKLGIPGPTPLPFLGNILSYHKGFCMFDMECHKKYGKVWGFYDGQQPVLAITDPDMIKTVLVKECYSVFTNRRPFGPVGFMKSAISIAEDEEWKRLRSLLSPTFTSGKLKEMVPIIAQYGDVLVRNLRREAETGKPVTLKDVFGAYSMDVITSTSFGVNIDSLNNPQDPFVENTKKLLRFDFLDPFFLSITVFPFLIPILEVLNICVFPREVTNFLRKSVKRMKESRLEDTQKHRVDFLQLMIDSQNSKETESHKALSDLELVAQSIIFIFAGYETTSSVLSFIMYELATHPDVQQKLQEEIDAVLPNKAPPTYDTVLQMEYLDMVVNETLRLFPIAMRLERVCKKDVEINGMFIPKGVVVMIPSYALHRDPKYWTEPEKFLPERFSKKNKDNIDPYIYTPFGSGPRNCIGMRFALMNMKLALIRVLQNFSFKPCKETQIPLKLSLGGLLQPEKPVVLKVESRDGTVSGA

[4] = Effective permeability coefficient at pH 5 by PAMPA method; type: ADME; details: read-out: Peff
[5] = Effective permeability coefficient at pH 7.4 by PAMPA method; type: ADME; details: read-out: Peff
CYP2D6 = CYP2D6 (Homo sapiens, UniProt P10635); experiment: Inhibition of CYP2D6 (unknown origin) at 10 uM; type: ADME
Chain of CYP2D6 (P10635 whole entry): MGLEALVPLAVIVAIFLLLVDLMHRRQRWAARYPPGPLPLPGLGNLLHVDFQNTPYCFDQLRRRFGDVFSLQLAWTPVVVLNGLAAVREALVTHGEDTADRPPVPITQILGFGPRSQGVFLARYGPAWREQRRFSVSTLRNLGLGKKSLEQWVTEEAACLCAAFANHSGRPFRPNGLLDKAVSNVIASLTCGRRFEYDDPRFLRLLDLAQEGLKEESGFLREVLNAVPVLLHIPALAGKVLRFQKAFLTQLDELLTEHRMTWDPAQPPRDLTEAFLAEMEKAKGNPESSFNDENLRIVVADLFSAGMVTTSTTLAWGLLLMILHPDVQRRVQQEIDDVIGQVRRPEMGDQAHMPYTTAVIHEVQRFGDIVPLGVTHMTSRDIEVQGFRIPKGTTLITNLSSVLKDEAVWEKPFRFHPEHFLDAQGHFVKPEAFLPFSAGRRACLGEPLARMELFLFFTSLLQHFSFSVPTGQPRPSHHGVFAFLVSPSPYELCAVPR

[6] = Metabolic stability in human liver microsomes assessed as compound remaining at 0.5 mg/ml measured after 30 mins; type: ADME, Microsome; details: read-out: Stability
CYP3A4 [7] = molecular target: T1, CYP3A4; experiment: Inhibition of CYP3A4 (unknown origin) at 10 uM; type: ADME
CYP2C9 = CYP2C9 (Homo sapiens, UniProt P11712); experiment: Inhibition of CYP2C9 (unknown origin) at 10 uM; type: ADME
Chain of CYP2C9 (P11712 whole entry): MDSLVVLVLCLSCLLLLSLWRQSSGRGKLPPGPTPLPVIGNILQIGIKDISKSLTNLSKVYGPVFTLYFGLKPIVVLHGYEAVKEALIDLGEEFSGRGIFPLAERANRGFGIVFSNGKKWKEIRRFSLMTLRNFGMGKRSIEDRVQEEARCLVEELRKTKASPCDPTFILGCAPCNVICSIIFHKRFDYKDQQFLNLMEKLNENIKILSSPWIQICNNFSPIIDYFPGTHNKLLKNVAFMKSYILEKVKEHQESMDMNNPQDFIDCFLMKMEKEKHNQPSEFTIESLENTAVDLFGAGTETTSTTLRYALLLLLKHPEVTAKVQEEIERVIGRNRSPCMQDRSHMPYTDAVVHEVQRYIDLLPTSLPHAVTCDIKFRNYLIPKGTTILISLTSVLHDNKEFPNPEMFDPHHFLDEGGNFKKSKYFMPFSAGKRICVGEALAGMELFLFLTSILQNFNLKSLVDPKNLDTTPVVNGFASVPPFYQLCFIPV

CYP1A2 = molecular target: T2, CYP1A2 (Homo sapiens, UniProt P05177); experiment: Inhibition of CYP1A2 (unknown origin) at 10 uM; type: ADME
T2 sequence (P05177 whole entry): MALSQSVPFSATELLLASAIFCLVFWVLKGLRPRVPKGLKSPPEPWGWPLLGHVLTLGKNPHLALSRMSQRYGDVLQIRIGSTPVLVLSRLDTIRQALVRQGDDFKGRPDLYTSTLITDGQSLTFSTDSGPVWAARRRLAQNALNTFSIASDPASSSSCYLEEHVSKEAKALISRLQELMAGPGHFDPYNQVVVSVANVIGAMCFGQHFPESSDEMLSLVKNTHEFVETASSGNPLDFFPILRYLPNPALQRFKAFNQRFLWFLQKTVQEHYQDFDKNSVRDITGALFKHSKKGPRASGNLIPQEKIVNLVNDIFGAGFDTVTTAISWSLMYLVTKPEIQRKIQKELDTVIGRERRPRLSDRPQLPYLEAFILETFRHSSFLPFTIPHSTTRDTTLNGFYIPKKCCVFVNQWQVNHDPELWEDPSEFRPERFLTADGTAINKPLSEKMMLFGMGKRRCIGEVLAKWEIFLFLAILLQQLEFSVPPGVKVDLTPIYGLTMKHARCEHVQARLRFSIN

CYP2C19 = CYP2C19 (Homo sapiens, UniProt P33261); experiment: Inhibition of CYP2C19 (unknown origin) at 10 uM; type: ADME
Chain of CYP2C19 (P33261 whole entry): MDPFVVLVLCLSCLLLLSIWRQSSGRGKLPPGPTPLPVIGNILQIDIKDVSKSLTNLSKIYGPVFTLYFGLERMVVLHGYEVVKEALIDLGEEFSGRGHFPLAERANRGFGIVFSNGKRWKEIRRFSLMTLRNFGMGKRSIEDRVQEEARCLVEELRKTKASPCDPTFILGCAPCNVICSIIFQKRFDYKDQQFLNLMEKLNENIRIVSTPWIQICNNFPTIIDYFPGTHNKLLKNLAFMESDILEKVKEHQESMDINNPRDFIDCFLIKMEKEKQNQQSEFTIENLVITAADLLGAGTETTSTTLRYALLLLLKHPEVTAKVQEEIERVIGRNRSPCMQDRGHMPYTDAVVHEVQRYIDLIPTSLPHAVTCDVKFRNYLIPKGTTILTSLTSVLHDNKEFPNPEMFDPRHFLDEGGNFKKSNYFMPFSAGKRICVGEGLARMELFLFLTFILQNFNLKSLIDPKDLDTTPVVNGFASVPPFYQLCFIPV

[8] = Solubility of the compound in JP2 fluid at pH 6.8; type: physicochemical
Rattus norvegicus [9] = experiment: Antiosteoporotic activity against OVX-induced rat model assessed as increase in osteocalcin secretion in serum at 3 mg/kg/day; type: functional, organism-based
Rattus norvegicus [10] = experiment: Anti-osteoporosis activity in ovariectomized rat assessed as increase in bone strength at 1 mg/kg, po; type: functional, organism-based
Rattus norvegicus [11] = experiment: Anti-osteoporosis activity in ovariectomized rat assessed as […] in areal bone mineral density in humeral diaphysis at 3 mg/kg, po qd measured after 14 weeks; type: functional, organism-based
Rattus norvegicus [12] = experiment: Anti-osteoporosis activity in ovariectomized rat assessed as […] in areal bone mineral density in total humerus at 1 mg/kg, po qd measured after 14 weeks; type: functional, organism-based
Rattus norvegicus [13] = experiment: Antiosteoporotic activity against OVX-induced rat model assessed as increase in deo-xypyridinoline level at 0.3 mg/kg/day; type: functional, organism-based
Rattus norvegicus [14] = experiment: Anti-osteoporosis activity in ovariectomized rat assessed as […] in areal bone mineral density in humeral diaphysis at 1 mg/kg, po qd measured after 14 weeks; type: functional, organism-based
[15] = AUC in Fischer 344 rat at 100 mg/kg, po; type: ADME, organism-based; set-up: dose 100 mg/kg; details: in vivo

Compound CCCOCC1CCCN(c2ccnc3sc(C(N)=O)c(N)c23)C1 (stereo not drawn) has an EC200 (ST-2) of 0.095 µg/mL.

Work on Cn1ccnc1COC[C@H]1CCCN(c2ccnc3sc(C(N)=O)c(N)c23)C1 yielded an AUC(0-t) at 8 h [1] of 45 ng·h/mL, an EC200 (ST-2) of 0.019 µg/mL and a Cmax [2] of 15.1 ng/mL.

With CN(C)C(=O)C1CCCN(c2ccnc3sc(C(N)=O)c(N)c23)C1 (stereo not drawn) the EC200 (ST-2) was greater than 0.3 µg/mL.

With COCC1CCCN(c2ccnc3sc(C(N)=O)c(N)c23)C1 (stereo in doubt; 9g) [listing 1 of 2 here] the EC200 (ST-2) was 0.049 µg/mL.

In the case of Cc1cc(Oc2ccc(CCCC(=O)N(C)C)cc2F)c2c(N)c(C(N)=O)sc2n1, the EC200 (ST-2) was 0.0005 µg/mL.

In the case of Cc1cc(N2CCC[C@H](COCc3nc(C)no3)C2)c2c(N)c(C(N)=O)sc2n1, the AUC(0-t) at 8 h [1] was 722 ng·h/mL, the EC200 (ST-2) was 0.026 µg/mL and the Cmax [2] was 188 ng/mL.

In the case of Cn1cnnc1COC[C@H]1CCCN(c2ccnc3sc(C(N)=O)c(N)c23)C1, the EC200 (ST-2) was 0.168 µg/mL.

With COCCC1CCCN(c2ccnc3sc(C(N)=O)c(N)c23)C1 (stereo not drawn) the EC200 (ST-2) was 0.26 µg/mL.

With NC(=O)c1sc2nccc(N3CCC[C@H](COCC(=O)N4CCOCC4)C3)c2c1N the AUC(0-t) at 8 h [1] was 756 ng·h/mL, the EC200 (ST-2) was 0.014 µg/mL and the Cmax [2] was 217 ng/mL.

CC(C)OC[C@H]1CCCN(c2ccnc3sc(C(N)=O)c(N)c23)C1 gave an EC200 (ST-2) of 0.057 µg/mL.

Compound NC(=O)c1sc2nccc(N3CCCN(c4ccccc4)CC3)c2c1N has a remaining at 100 µM (CYP3A4 [3]) of 28% and an EC200 (ST-2) of 0.051 µg/mL.

With Cc1noc(COC[C@H]2CCCN(c3ccnc4sc(C(N)=O)c(N)c34)C2)n1 the AUC(0-t) at 8 h [1] was 563 ng·h/mL, the EC200 (ST-2) was 0.017 µg/mL and the Cmax [2] was 158 ng/mL.

NC(=O)c1sc2nccc(N3CCC[C@H](COCCO)C3)c2c1N showed an AUC(0-t) at 8 h [1] of 320 ng·h/mL, an EC200 (ST-2) of 0.017 µg/mL and a Papp [4] of 2.8 ×10⁻⁶ cm/s. It also gave a Papp [5] of 2.9 ×10⁻⁶ cm/s and a Cmax [2] of 114 ng/mL.

CC1CCN(c2ccnc3sc(C(N)=O)c(N)c23)CC1 showed an EC200 (ST-2) of 0.23 µg/mL.

With COC[C@@H]1CCCN(c2ccnc3sc(C(N)=O)c(N)c23)C1 the EC200 (ST-2) was 0.25 µg/mL.

Compound NC(=O)c1sc2nccc(N3CCCCC3)c2c1N has a remaining at 100 µM (CYP3A4 [3]) of 92%, an EC200 (ST-2) of 0.067 µg/mL and an inhibition at 10 µM (CYP2D6) of 9%. It also gave a remaining at 0.5 h [6] of 20%, an inhibition at 10 µM (CYP3A4 [7]) of 23% and an inhibition at 10 µM (CYP2C9) of 4%. For the same compound, the inhibition at 10 µM (CYP1A2) was 62% and the inhibition at 10 µM (CYP2C19) was 0%.

Compound CC1CCCN(c2ccnc3sc(C(N)=O)c(N)c23)C1 (stereo not drawn) has an EC200 (ST-2) of 0.024 µg/mL and a remaining at 0.5 h [6] of 18%.

In the case of NC(=O)c1sc2nccc(N3CCCC(O)C3)c2c1N (stereo not drawn), the EC200 (ST-2) was 0.17 µg/mL.

Compound CCOCC1CCCN(c2ccnc3sc(C(N)=O)c(N)c23)C1 (stereo not drawn) has an EC200 (ST-2) of 0.031 µg/mL.

Compound CCOCCOC[C@H]1CCCN(c2cc(C)nc3sc(C(N)=O)c(N)c23)C1 has an AUC(0-t) at 8 h [1] of 1350 ng·h/mL, a solubility [8] of 560 µg/mL (≈ 1430 µM) and an EC200 (ST-2) of 0.03 µg/mL. For the same compound, the Cmax [2] was 357 ng/mL.

With COC[C@H]1CCCN(c2ccnc3sc(C(N)=O)c(N)c23)C1 the AUC(0-t) at 8 h [1] was 227 ng·h/mL, the solubility [8] was 220 µg/mL (≈ 687 µM) and the EC200 (ST-2) was 0.022 µg/mL. It also gave a Cmax [2] of 80.5 ng/mL.

In the case of NC(=O)c1sc2nccc(N3CCCC(CO)C3)c2c1N (stereo not drawn), the EC200 (ST-2) was 0.076 µg/mL.

COCCCC1CCCN(c2ccnc3sc(C(N)=O)c(N)c23)C1 (stereo not drawn) showed an EC200 (ST-2) of 0.026 µg/mL.

For CCOCCOC[C@H]1CCCN(c2ccnc3sc(C(N)=O)c(N)c23)C1, the Activity (Rattus norvegicus [9]) was “Active”, the Activity (Rattus norvegicus [10]) was “Active” and the Activity (Rattus norvegicus [11]) was “Active”. For the same compound, the AUC(0-t) at 8 h [1] was 2000 ng·h/mL, the Activity (Rattus norvegicus [12]) was “Active” and the remaining at 100 µM (CYP3A4 [3]) was 82%. For the same compound, the solubility [8] was 500 µg/mL (≈ 1320 µM), the EC200 (ST-2) was 0.024 µg/mL and the Activity (Rattus norvegicus [13]) was “Active”. It also gave an inhibition at 10 µM (CYP2D6) of 2%, an inhibition at 10 µM (CYP3A4 [7]) of 10% and an inhibition at 10 µM (CYP2C9) of 2%. For the same compound, the Activity (Rattus norvegicus [14]) was “Active”, the Cmax [2] was 804 ng/mL and the inhibition at 10 µM (CYP1A2) was 33%. For the same compound, the inhibition at 10 µM (CYP2C19) was 15%.

With NC(=O)c1sc2nccc(N3CCCC(C(=O)O)C3)c2c1N (stereo not drawn) the EC200 (ST-2) was greater than 0.3 µg/mL and the AUC [15] was 18800 ng·h/mL.

CN(C)c1ccnc2sc(C(N)=O)c(N)c12 gave an EC200 (ST-2) of 0.17 µg/mL.

Work on COCC1CCCN(c2ccnc3sc(C(N)=O)c(N)c23)C1 (stereo in doubt; 9g) [listing 2 of 2 here] yielded a remaining at 0.5 h [6] of 66%.

For COC(C)[C@H]1CCCN(c2ccnc3sc(C(N)=O)c(N)c23)C1 (stereo partly drawn), the EC200 (ST-2) was 0.146 µg/mL.

Cc1nsc(COC[C@H]2CCCN(c3ccnc4sc(C(N)=O)c(N)c34)C2)n1 showed an EC200 (ST-2) of 0.05 µg/mL.

COCC1CCCN(c2ccnc3sc(C(N)=O)c(N)c23)C1 (racemic) showed an EC200 (ST-2) of 0.049 µg/mL.
